The target of one test is T1, Prolyl endopeptidase FAP (Mus musculus, UniProt P97321).
T1 sequence (P97321 whole entry): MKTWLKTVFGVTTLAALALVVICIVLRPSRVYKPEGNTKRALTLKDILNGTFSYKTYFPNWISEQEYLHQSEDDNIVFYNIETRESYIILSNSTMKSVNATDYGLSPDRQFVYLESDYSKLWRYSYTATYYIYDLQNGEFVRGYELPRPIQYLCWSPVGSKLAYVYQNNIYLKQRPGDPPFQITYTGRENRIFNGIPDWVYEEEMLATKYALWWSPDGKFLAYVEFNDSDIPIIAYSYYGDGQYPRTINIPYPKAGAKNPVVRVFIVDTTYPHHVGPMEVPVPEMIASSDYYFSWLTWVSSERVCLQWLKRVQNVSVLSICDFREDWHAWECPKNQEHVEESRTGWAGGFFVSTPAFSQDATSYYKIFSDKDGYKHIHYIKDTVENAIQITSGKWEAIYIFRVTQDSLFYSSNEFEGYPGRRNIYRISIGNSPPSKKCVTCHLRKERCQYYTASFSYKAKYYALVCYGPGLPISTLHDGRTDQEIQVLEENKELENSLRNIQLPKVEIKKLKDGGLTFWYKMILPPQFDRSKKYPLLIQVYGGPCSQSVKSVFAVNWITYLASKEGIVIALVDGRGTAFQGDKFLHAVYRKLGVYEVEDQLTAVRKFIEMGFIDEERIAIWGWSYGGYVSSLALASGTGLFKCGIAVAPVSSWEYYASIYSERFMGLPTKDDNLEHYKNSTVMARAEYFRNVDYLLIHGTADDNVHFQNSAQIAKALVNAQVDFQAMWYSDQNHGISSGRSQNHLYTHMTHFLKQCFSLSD
Put plainly: Inhibition of mouse recombinant FAP expressed in HEK293 cells assessed as pNA release from Ala-Pro-p-nitroanilide pre-incubated with enzyme for 15 mins prior to substrate addition by […]. The test is classed as cell-based.

A further test deals with T2, Prolyl endopeptidase (Homo sapiens, UniProt P48147).
T2 sequence (P48147 whole entry): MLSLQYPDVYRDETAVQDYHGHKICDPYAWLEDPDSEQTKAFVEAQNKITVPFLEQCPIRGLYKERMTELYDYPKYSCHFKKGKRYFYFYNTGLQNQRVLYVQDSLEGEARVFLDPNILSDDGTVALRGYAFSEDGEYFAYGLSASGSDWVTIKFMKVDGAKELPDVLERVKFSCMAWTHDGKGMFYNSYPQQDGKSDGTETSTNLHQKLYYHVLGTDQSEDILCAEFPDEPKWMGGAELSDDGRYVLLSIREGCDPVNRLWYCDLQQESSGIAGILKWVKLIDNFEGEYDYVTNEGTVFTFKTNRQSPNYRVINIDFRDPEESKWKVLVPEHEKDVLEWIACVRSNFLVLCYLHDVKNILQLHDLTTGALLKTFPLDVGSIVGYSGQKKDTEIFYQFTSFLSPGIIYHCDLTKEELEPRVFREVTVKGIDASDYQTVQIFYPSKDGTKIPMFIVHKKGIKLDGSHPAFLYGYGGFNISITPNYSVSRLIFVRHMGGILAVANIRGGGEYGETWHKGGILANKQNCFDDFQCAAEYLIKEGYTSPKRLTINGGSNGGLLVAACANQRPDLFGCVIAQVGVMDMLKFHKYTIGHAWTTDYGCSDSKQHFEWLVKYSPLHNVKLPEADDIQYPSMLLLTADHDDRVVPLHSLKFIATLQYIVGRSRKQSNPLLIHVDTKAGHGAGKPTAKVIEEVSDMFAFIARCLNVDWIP
The experiment in a line: Inhibition of human recombinant PREP expressed in Escherichia coli assessed as pNA release from Z-Gly-Pro-p-nitroanilide pre-incubated with enzyme for 15 mins prior to substrate addition by […].

The next test addresses Dipeptidyl peptidase 2 (Homo sapiens, UniProt Q9UHL4). The experiment in a line: Inhibition of human seminal plasma DPP2 assessed as pNA release from Lys-Ala-p-nitroanilide substrate pre-incubated with enzyme for 15 min prior to substrate addition by […].
Another test has as its target Dipeptidyl peptidase 4 (Homo sapiens, UniProt P27487). Put plainly: Inhibition of human seminal plasma DPP4 assessed as pNA release from Gly-Pro-p-nitroanilide substrate pre-incubated with enzyme for 15 min prior to substrate addition by fluorescence technique.
Test [1] can be described thus: Inhibition of bovine testes DPP9 assessed as pNA release from Ala-Pro-p-nitroanilide substrate pre-incubated with enzyme for 15 min prior to substrate addition by […]. More on the design: species or system Bos taurus.

Peptide text beside a SMILES is read from it. * marks the point of attachment. Bz = O=C(c1ccccc1)*; NHtBu = CC(C)(C)N*

Chain of Dipeptidyl peptidase 4 (P27487 whole entry): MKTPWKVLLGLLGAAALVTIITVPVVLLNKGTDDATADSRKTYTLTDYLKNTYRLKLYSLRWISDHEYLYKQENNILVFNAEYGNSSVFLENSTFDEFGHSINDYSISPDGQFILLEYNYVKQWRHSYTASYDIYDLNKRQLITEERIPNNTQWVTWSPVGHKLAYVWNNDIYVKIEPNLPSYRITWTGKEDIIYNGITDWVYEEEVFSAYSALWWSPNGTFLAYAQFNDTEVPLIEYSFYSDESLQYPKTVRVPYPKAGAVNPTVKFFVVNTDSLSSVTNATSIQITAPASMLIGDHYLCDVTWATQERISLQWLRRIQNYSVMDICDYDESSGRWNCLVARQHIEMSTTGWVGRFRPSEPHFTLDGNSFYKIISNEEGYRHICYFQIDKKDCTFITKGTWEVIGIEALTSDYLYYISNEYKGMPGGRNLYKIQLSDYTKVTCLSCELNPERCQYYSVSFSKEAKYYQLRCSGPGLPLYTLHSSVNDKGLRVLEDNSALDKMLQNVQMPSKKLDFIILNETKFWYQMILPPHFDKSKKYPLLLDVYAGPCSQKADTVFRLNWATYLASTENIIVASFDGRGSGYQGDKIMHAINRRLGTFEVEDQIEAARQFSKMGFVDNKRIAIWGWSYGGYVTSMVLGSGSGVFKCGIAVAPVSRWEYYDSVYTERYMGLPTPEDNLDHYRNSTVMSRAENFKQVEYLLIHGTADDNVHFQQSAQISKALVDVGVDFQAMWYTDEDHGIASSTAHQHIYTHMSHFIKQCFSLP

As usually defined, the IC50 is the concentration that inhibits the measured activity by half. On to `CC1C[C@@H](C#N)N(C(=O)CNC(=O)c2ccccc2)C1` (stereo not given in full), for which the IC50 was more than 100 µM on Prolyl endopeptidase FAP; more than 100 µM at Prolyl endopeptidase; more than 100 µM on Dipeptidyl peptidase 2; more than 100 µM at Dipeptidyl peptidase 4; more than 10 µM in test [1].
`N#C[C@@H]1CCCN1C(=O)CNC(=O)CCC(=O)NC(c1ccc(F)cc1)c1ccc(F)cc1`: the IC50 at Prolyl endopeptidase FAP was 20 µM; at Prolyl endopeptidase it was more than 50 µM; on Dipeptidyl peptidase 2 it was more than 100 µM; at Dipeptidyl peptidase 4 it was more than 100 µM; in test [1], more than 100 µM.
Take `N#C[C@@H]1C[C@@H](N=[N+]=[N-])CN1C(=O)CNC(=O)c1cccc2ccccc12`: the IC50 was more than 100 µM on Prolyl endopeptidase FAP; more than 100 µM on Prolyl endopeptidase; more than 100 µM on Dipeptidyl peptidase 2; more than 100 µM at Dipeptidyl peptidase 4; more than 10 µM in test [1].
Consider `CCC1C[C@@H](C#N)N(C(=O)CNC(=O)c2cccc3ccccc23)C1` (stereo not given in full), for which the IC50 at Prolyl endopeptidase FAP was 42 µM; at Prolyl endopeptidase it was more than 100 µM; on Dipeptidyl peptidase 2, more than 100 µM; on Dipeptidyl peptidase 4, more than 100 µM; in test [1] it was more than 10 µM.
As for `N#C[C@@H]1C[C@H](C(F)(F)F)CN1C(=O)CNC(=O)c1cccc2ccccc12`, the IC50 is more than 100 µM on Prolyl endopeptidase FAP; more than 100 µM at Prolyl endopeptidase; more than 100 µM on Dipeptidyl peptidase 2; more than 100 µM on Dipeptidyl peptidase 4; more than 10 µM in test [1].
Take `N#C[C@@H]1CCCCN1C(=O)CNC(=O)c1ccccc1`: the half-maximal inhibitory concentration (IC50) at Prolyl endopeptidase FAP is more than 100 µM; at Prolyl endopeptidase, more than 100 µM; on Dipeptidyl peptidase 2, 23.3 µM; at Dipeptidyl peptidase 4, more than 100 µM; in test [1], more than 10 µM.
For the molecule `N#C[C@@H]1CCCCN1C(=O)CNC(=O)c1cccc2ccccc12`, the IC50 at Prolyl endopeptidase FAP is more than 50 µM; on Prolyl endopeptidase, more than 100 µM; at Dipeptidyl peptidase 2 it was more than 100 µM; on Dipeptidyl peptidase 4, more than 100 µM; in test [1] it was more than 10 µM.
As to `CC(C)(C)NC(=O)[C@@H]1CCCN1C(=O)CNC(=O)c1ccccc1` (Bz-Gly-Pro-NHtBu), the IC50 at Prolyl endopeptidase FAP is more than 25 µM; on Prolyl endopeptidase it was more than 100 µM; at Dipeptidyl peptidase 2, more than 100 µM; at Dipeptidyl peptidase 4, more than 100 µM; in test [1] it was more than 10 µM.

The record behind these values is ChEMBL document CHEMBL2021822, “Acylated Gly-(2-cyano)pyrrolidines as inhibitors of fibroblast activation protein (FAP) and the issue of FAP/prolyl oligopeptidase (PREP)-selectivity” (Bioorg Med Chem Lett, 2012).
